# Measured values as given in patent US6734337B2, “Acetyl-coenzyme A carboxylase 2 as a target in the regulation of fat burning, fat accumulation, energy homeostasis and insulin action” (Research Development Foundation, priority 2000, dated 2004).
# Legend:
# [1] = system: soleus muscles of Acc2-/- mutant mice; experiment: [3H]palmitate oxidation in isolated soleus muscle of Acc2-/- mutant mice; assay type: cell-based, mouse; conditions: 30 min, 37° C.
# Method: Where indicated, insulin (10 nM) or isoproterenol (3 mM) was added, and the vials were incubated at 37° C. under a humidified O2/CO2 (95/5%) atmosphere for 30 min. At the end of the incubation period, the [^3H]2O was separated from the labeled substrate and counted. To provide further evidence for the role of ACC2-synthesized malonyl-CoA as the regulator of fatty acid oxidation, fatty acid oxidation was investigated in the mouse soleus muscle, a […] muscle tissue responsive to hormonal regulation ([…]., Gamble, J., Patel, A., Kemp, […]., and Ruderman, W. B., J Biol Chem., 272:13255-13261 1997; Alam, N., and E. D. Saggerson. Biochem J., 334:233-41, 1998; […]., and […]. Proc Natl Acad Sci. USA 92, 4011-4015, 1995; […]., and […] Biol Chem. 272, 10669-10677, 1997; -Ha, J., J. K. Lee, […], and K.-H. Him. Proc Natl Acad Sci USA. 93:11466-11470, 1996; Rasmussen, B. B. and Wolfe, R. R., Ann. Rev. Natr. 19:463, 1999; and, Bressler, R. and […] Biol Chem. 236:1643-1651, 1961). […] Insulin is known to activate both ACC1 and ACC2 and, thereby, to induce fatty acid synthesis and inhibit fatty acid oxidation, respectively. […] Faseb J. 3:2250-2256, 1989; Thampy, K. G., and […]. Biol. Chem. 263, 6454-6458, 1988; […]., and […]. Biol. Chem. 265, 6330-6338, 1990; Mohamed, A. H., W. Y. Huang, W. Huang, K. V. Venkatachalam, and […] Biol Chem. 269:6859-6865. 1994; and, Hardie, D. G. Prog Lipid Res. 28:117-146, 1989). The role of ACC2 in the regulation of mitochondrial oxidation of fatty acids was further confirmed by using isoproterenol, an analog of glucagon, which produces effects opposite of those of insulin. Adding isoproterenol to wild-type soleus muscle increased palmitate oxidation by 50% (FIG. 4), raising it to nearly the same level as that found in the mutant muscle cells. […] This additional increase may be due to factors independent of malonyl-CoA ([…]. Lopez-[…]. Bai, X. Luo, and M. E. Pape. Faseb J. 3:2250-2256, 1989).
# [2] = system: soleus muscles of wild-type (Acc2+/+) mice; experiment: [3H]palmitate oxidation in isolated soleus muscle of wild-type mice; assay type: cell-based, mouse; conditions: isoproterenol 3 mM, 30 min, 37° C.
# Method: Where indicated, insulin (10 nM) or isoproterenol (3 mM) was added, and the vials were incubated at 37° C. under a humidified O2/CO2 (95/5%) atmosphere for 30 min. At the end of the incubation period, the [^3H]2O was separated from the labeled substrate and counted. To provide further evidence for the role of ACC2-synthesized malonyl-CoA as the regulator of fatty acid oxidation, fatty acid oxidation was investigated in the mouse soleus muscle, a […] muscle tissue responsive to hormonal regulation ([…]., Gamble, J., Patel, A., Kemp, […]., and Ruderman, W. B., J Biol Chem., 272:13255-13261 1997; Alam, N., and E. D. Saggerson. Biochem J., 334:233-41, 1998; […]., and […]. Proc Natl Acad Sci. USA 92, 4011-4015, 1995; […]., and […] Biol Chem. 272, 10669-10677, 1997; -Ha, J., J. K. Lee, […], and K.-H. Him. Proc Natl Acad Sci USA. 93:11466-11470, 1996; Rasmussen, B. B. and Wolfe, R. R., Ann. Rev. Natr. 19:463, 1999; and, Bressler, R. and […] Biol Chem. 236:1643-1651, 1961). […] Insulin is known to activate both ACC1 and ACC2 and, thereby, to induce fatty acid synthesis and inhibit fatty acid oxidation, respectively. […] Faseb J. 3:2250-2256, 1989; Thampy, K. G., and […]. Biol. Chem. 263, 6454-6458, 1988; […]., and […]. Biol. Chem. 265, 6330-6338, 1990; Mohamed, A. H., W. Y. Huang, W. Huang, K. V. Venkatachalam, and […] Biol Chem. 269:6859-6865. […]
# ACC = conditions: mice treated with fatty acid synthase inhibitors; cited from earlier work
compound,measurement,setting,value
CC(C)NCC(O)c1ccc(O)c(O)c1 (centres unmarked) [isoproterenol],effect on fatty acid oxidation,[1]; isoproterenol 3 mM,further increased
same,effect on fatty acid oxidation,"[1]; isoproterenol 3 mM, listed as Isoproterenol",little effect
same,increase of fatty acid (palmitate) oxidation,[2],50%
CCCCCCCCCCCCCCOc1ccc(C(=O)O)o1 [5-(tetradeculoxy)-2 furoic acid],effect on food uptake,ACC,increases food uptake
insulin,effect on fatty acid oxidation,[1]; insulin 10 nM,did not affect
